The source of these data is ChEMBL document CHEMBL1127937, “Dual metalloprotease inhibitors. I. constrained peptidomimetics of mercaptoacyl dipeptides” (Bioorg Med Chem Lett, 1994).

One assay concerns the target Neprilysin (Homo sapiens, UniProt P08473). In words: Tested in vitro for inhibition of neutral endopeptidase (NEP). The conditions noted are these: read-out: I50.
Assay [1] deals with Angiotensin-converting enzyme (Homo sapiens, UniProt P12821). In words: Tested in vitro for inhibition of Angiotensin converting enzyme (ACE). Conditions: read-out: I50.
Chain of Angiotensin-converting enzyme (P12821 whole entry): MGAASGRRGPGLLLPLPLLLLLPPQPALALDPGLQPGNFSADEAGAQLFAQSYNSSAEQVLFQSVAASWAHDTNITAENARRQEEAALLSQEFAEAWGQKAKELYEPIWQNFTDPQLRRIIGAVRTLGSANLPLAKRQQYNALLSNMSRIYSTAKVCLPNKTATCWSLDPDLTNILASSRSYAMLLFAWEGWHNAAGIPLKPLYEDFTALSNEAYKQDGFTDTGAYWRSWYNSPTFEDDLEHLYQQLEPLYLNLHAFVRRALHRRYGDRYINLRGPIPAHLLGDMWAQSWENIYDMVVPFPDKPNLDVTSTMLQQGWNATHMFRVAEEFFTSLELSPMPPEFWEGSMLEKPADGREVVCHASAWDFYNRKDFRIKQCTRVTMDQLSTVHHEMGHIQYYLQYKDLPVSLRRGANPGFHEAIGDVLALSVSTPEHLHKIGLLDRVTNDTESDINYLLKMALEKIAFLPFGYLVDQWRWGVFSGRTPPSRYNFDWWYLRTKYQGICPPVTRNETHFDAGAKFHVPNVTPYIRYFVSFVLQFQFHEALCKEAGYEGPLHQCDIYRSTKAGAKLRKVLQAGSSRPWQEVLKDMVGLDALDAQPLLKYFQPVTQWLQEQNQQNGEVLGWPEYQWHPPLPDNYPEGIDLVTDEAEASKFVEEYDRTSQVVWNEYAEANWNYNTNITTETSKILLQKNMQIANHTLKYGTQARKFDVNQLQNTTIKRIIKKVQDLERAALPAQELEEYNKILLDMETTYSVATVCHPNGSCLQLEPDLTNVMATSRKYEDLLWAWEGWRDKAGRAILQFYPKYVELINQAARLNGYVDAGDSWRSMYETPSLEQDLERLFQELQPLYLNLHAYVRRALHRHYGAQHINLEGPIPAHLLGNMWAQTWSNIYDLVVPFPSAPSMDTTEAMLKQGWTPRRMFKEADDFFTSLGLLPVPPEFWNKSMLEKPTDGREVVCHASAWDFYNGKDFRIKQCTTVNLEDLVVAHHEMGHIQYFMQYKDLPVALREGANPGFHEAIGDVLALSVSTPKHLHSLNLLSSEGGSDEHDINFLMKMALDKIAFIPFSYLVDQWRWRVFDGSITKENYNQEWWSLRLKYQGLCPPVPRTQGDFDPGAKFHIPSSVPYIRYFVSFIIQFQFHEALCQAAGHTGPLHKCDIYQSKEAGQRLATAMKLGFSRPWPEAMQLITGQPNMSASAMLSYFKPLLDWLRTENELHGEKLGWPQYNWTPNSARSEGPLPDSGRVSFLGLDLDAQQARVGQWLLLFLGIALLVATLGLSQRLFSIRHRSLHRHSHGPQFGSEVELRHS
The next assay concerns Rattus norvegicus. In words: Tested in vivo for inhibition of angiotensin I -induced pressor response in normotensive rats after iv administration. The format is functional.

Chain of Neprilysin (P08473 whole entry): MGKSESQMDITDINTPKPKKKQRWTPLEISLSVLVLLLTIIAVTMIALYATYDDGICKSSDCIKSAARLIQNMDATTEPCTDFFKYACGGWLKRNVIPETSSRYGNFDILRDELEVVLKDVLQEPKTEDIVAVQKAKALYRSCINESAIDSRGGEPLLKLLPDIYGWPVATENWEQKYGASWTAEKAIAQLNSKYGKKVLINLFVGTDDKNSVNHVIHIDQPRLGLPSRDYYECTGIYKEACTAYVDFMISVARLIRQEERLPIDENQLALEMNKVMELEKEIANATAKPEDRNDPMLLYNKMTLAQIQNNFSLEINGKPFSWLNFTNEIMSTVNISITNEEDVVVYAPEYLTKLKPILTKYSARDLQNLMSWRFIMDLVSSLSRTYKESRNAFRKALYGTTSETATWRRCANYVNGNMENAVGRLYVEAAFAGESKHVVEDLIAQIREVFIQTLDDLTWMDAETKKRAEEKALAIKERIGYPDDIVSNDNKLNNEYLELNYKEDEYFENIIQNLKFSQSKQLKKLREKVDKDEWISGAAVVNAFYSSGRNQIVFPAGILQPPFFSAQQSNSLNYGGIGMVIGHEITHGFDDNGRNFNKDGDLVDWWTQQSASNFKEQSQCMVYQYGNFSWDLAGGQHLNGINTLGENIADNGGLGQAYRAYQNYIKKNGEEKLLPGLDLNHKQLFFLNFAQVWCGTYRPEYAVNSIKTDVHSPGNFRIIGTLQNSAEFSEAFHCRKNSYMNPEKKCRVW

Consider `C[C@H](NC(=O)[C@@H](S)Cc1ccccc1)C(=O)N1CCC[C@H]1C(=O)O`, for which the IC50 on Neprilysin amounted to 0.4 µM; in assay [1], 0.03 µM. The molecule also returned an ED50 in the assay with Rattus norvegicus of 0.06 µmol/kg.

On to `O=C(O)CN1C(=O)[C@@H](NC(=O)[C@@H](S)Cc2ccccc2)CSc2ccccc21`, for which the IC50 at Neprilysin came out at 0.064 µM; in assay [1], 0.013 µM. The molecule further registered an ED50 in the assay with Rattus norvegicus of 0.14 µmol/kg.

As to `C[C@H](NC(=O)[C@@H](CS)Cc1ccccc1)C(=O)N1CCC[C@H]1C(=O)O`, the IC50 was 0.0066 µM on Neprilysin and 0.004 µM in assay [1]. In the assay on Rattus norvegicus, the ED50 came out at 0.5 µmol/kg.

On to `O=C(O)CCN1C(=O)[C@@H](NC(=O)[C@@H](S)Cc2ccccc2)CSc2ccccc21`, for which the IC50 at Neprilysin is 0.0022 µM; in assay [1], 0.014 µM. It took a dose of 0.33 µmol/kg to reach the 50% effect level with Rattus norvegicus (ED50).

Take `O=C(O)CN1C(=O)[C@@H](NC(=O)[C@@H](S)Cc2ccccc2)CCc2ccccc21`: the IC50 on Neprilysin worked out at 0.0061 µM. The same molecule came in with an ED50 in the assay with Rattus norvegicus of 0.02 µmol/kg.

For `O=C(O)CCN1C(=O)[C@@H](NC(=O)[C@@H](S)Cc2ccccc2)CCc2ccccc21`, the values for the IC50 (at Neprilysin; in assay [1]) were 0.0024 µM and 0.036 µM, respectively. Moreover, the 50% effect level with Rattus norvegicus (ED50) was put at a dose of 1.34 µmol/kg.

Consider `O=C(O)CCN1C(=O)[C@@H](NC(=O)[C@@H](S)Cc2ccccc2)COc2ccccc21`, for which the results for the IC50 (on Neprilysin; in assay [1]) were 0.0012 µM and 0.031 µM, respectively. In addition, the ED50 with Rattus norvegicus was determined as 1.2 µmol/kg.

Take `C[C@@H]1Oc2ccccc2N(CC(=O)O)C(=O)[C@H]1NC(=O)[C@@H](S)Cc1ccccc1`: the IC50 at Neprilysin was 0.0052 µM; in assay [1], 0.036 µM. This molecule also gave an ED50 with Rattus norvegicus of 2.1 µmol/kg.

With `O=C(O)CN1C(=O)[C@@H](NC(=O)[C@@H](CS)Cc2ccccc2)COc2ccccc21`, the figures for the IC50 (at Neprilysin; in assay [1]) were 0.0006 µM and 0.0044 µM, respectively. For the same molecule, in the assay on Rattus norvegicus, the ED50 came out at 5.8 µmol/kg.

Take `O=C(O)CCN1C(=O)[C@@H](NC(=O)[C@@H](CS)Cc2ccccc2)CCc2ccccc21`: the IC50 at Neprilysin was found to be 0.0017 µM; in assay [1], 0.036 µM. Further, in the assay with Rattus norvegicus, the ED50 is 13.3 µmol/kg.

Regarding `O=C(O)CN1C(=O)[C@@H](NC(=O)[C@@H](CS)Cc2ccccc2)CCc2ccccc21`, the IC50 is 0.0021 µM on Neprilysin and 0.0048 µM in assay [1]. For the same molecule, the ED50 in the assay on Rattus norvegicus was found to be 0.52 µmol/kg.

Turning to `O=C(O)CN1C(=O)[C@@H](NC(=O)[C@@H](CS)Cc2ccccc2)CSc2ccccc21`, the IC50 at Neprilysin came out at 0.001 µM; in assay [1], 0.017 µM. The 50% effect level in the assay with Rattus norvegicus (ED50) was put at a dose of 4 µmol/kg.

As to `C[C@H]1Oc2ccccc2N(CCC(=O)O)C(=O)[C@H]1NC(=O)[C@@H](S)Cc1ccccc1`, the IC50 at Neprilysin was 0.083 µM; in assay [1], 0.018 µM.

Take `C[C@H]1Oc2ccccc2N(CC(=O)O)C(=O)[C@H]1NC(=O)[C@@H](S)Cc1ccccc1`: the results for the IC50 (on Neprilysin; in assay [1]) were 0.118 µM and 0.013 µM, respectively. In addition, the 50% effect level in the assay with Rattus norvegicus (ED50) was put at a dose of 0.015 µmol/kg.

Take `O=C(O)CN1C(=O)[C@@H](NC(=O)[C@@H](S)Cc2ccccc2)COc2ccccc21`: the IC50 at Neprilysin came out at 0.0031 µM; in assay [1], 0.028 µM. For the same molecule, it took a dose of 0.26 µmol/kg to reach the 50% effect level in the assay with Rattus norvegicus (ED50).
